Measurements from ChEMBL document CHEMBL1201862, “PubChem BioAssay data set” (2004).
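Interpolation was linear, between the two tested concentrations surrounding the appropriate level; five concentrations were tested over 48 hours in 96-well plates. Abbreviation: GI50, concentration required for 50% inhibition of growth.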 Calls of active or inactive are those of the source. Cut-off read from the data, not from the text of the source: active = GI50 up to about 1.1 µM and inactive = higher.

Key:
Test in all cases: growth of human tumour cells (NCI), 48 h
[1] = system: OVCAR-3
[2] = system: HOP-62
[3] = system: 786-0
[4] = system: Malme-3M
[5] = system: A498
[6] = system: K562
[7] = system: NCI-H23
[8] = system: U-251
[9] = system: OVCAR-5
[10] = system: M14
[11] = system: OVCAR-4
[12] = system: T47D
[13] = system: HL-60
[14] = system: MOLT-4
[15] = system: IGROV-1
[16] = system: COLO 205
[17] = system: UO-31
[18] = system: SW-620
[19] = system: UACC-62
[20] = system: MDA-MB-231
[21] = system: NCI-H226
[22] = system: HOP-92
[23] = system: MCF7
[24] = system: A549
[25] = system: RPMI-8226
[26] = system: Hs-578T
[27] = system: SF-268
[28] = system: SNB-19
[29] = system: TK-10
[30] = system: HT-29
[31] = system: UACC-257
[32] = system: RXF 393
[33] = system: NCI-H460
[34] = system: BT-549
[35] = system: SK-MEL-28
[36] = system: SNB-75
[37] = system: PC-3
[38] = system: NCI/ADR-RES
[39] = system: SF-539
[40] = system: HCT-15
[41] = system: KM12
[42] = system: SF-295
[43] = system: OVCAR-8
[44] = system: HCT-116
[45] = system: EKVX
[46] = system: MDA-MB-435
[47] = system: HCC 2998
[48] = system: LOX IMVI
[49] = system: SK-OV-3
[50] = system: MDA-N
[51] = system: CCRF-CEM
[52] = system: SK-MEL-5
[53] = system: ACHN
[54] = system: SR
[55] = system: NCI-H522
[56] = system: SK-MEL-2
[57] = system: SN12C
[58] = system: CAKI-1

O=C(O)c1ccccc1/C=N/N=C1NCCN1
GI50 [1]: > 100 µM (inactive) | GI50 [2]: > 100 µM (inactive) | GI50 [3]: > 100 µM (inactive) | GI50 [4]: 88.1 µM (inactive) | GI50 [5]: 26.8 µM (inactive) | GI50 [6]: > 100 µM (inactive) | GI50 [7]: > 100 µM (inactive) | GI50 [8]: > 100 µM (inactive) | GI50 [9]: > 100 µM (inactive) | GI50 [10]: > 100 µM (inactive) | GI50 [11]: > 100 µM (inactive) | GI50 [12]: > 100 µM (inactive) | GI50 [13]: 49.4 µM (inactive) | GI50 [14]: > 100 µM (inactive) | GI50 [15]: > 100 µM (inactive) | GI50 [16]: > 100 µM (inactive) | GI50 [17]: 44.4 µM (inactive) | GI50 [18]: > 100 µM (inactive) | GI50 [19]: > 100 µM (inactive) | GI50 [20]: > 100 µM (inactive) | GI50 [21]: > 100 µM (inactive) | GI50 [22]: 22.7 µM (inactive) | GI50 [23]: 91.2 µM (inactive) | GI50 [24]: > 100 µM (inactive) | GI50 [25]: 39.7 µM (inactive) | GI50 [26]: > 100 µM (inactive) | GI50 [27]: 97.9 µM (inactive) | GI50 [28]: > 100 µM (inactive) | GI50 [29]: 46.8 µM (inactive) | GI50 [30]: > 100 µM (inactive) | GI50 [31]: 84.1 µM (inactive) | GI50 [32]: > 100 µM (inactive) | GI50 [33]: > 100 µM (inactive) | GI50 [34]: > 100 µM (inactive) | GI50 [35]: > 100 µM (inactive) | GI50 [36]: > 100 µM (inactive) | GI50 [37]: > 100 µM (inactive) | GI50 [38]: > 100 µM (inactive) | GI50 [39]: > 100 µM (inactive) | GI50 [40]: > 100 µM | GI50 [41]: > 100 µM (inactive) | GI50 [42]: > 100 µM (inactive) | GI50 [43]: > 100 µM (inactive) | GI50 [44]: > 100 µM (inactive) | GI50 [45]: > 100 µM (inactive) | GI50 [46]: > 100 µM (inactive) | GI50 [47]: > 100 µM (inactive) | GI50 [48]: > 100 µM (inactive) | GI50 [49]: 61.5 µM (inactive) | GI50 [50]: > 100 µM (inactive) | GI50 [51]: > 100 µM (inactive) | GI50 [52]: > 100 µM (inactive) | GI50 [53]: 98.9 µM (inactive) | GI50 [54]: 88.5 µM (inactive) | GI50 [55]: 71.8 µM (inactive) | GI50 [56]: 59.6 µM (inactive)

CC(C)c1nc2cc(C(F)(F)F)ccc2[nH]c1=O
GI50 [1]: 49.9 µM (inactive) | GI50 [2]: 79.8 µM (inactive) | GI50 [3]: 66.7 µM (inactive) | GI50 [4]: > 100 µM (inactive) | GI50 [5]: 61.9 µM (inactive) | GI50 [6]: > 100 µM (inactive) | GI50 [7]: > 100 µM (inactive) | GI50 [8]: > 100 µM (inactive) | GI50 [9]: > 100 µM (inactive) | GI50 [10]: > 100 µM (inactive) | GI50 [11]: 94.8 µM (inactive) | GI50 [12]: > 100 µM (inactive) | GI50 [13]: 54 µM (inactive) | GI50 [14]: 75.3 µM (inactive) | GI50 [15]: > 100 µM (inactive) | GI50 [16]: > 100 µM (inactive) | GI50 [17]: > 100 µM (inactive) | GI50 [18]: > 100 µM (inactive) | GI50 [19]: 29.8 µM (inactive) | GI50 [20]: 69 µM (inactive) | GI50 [21]: 51.3 µM (inactive) | GI50 [22]: 42.5 µM (inactive) | GI50 [23]: 85.9 µM (inactive) | GI50 [24]: 53.6 µM (inactive) | GI50 [25]: > 100 µM (inactive) | GI50 [26]: 3.4 µM (inactive) | GI50 [27]: 88.5 µM (inactive) | GI50 [28]: > 100 µM (inactive) | GI50 [29]: 70.6 µM (inactive) | GI50 [30]: 72.1 µM (inactive) | GI50 [31]: > 100 µM (inactive) | GI50 [32]: 49.1 µM (inactive) | GI50 [57]: > 100 µM (inactive) | GI50 [33]: > 100 µM (inactive) | GI50 [34]: > 100 µM (inactive) | GI50 [35]: > 100 µM (inactive) | GI50 [36]: 34.4 µM (inactive) | GI50 [37]: 77.8 µM (inactive) | GI50 [38]: 57.8 µM (inactive) | GI50 [39]: > 100 µM (inactive) | GI50 [40]: > 100 µM | GI50 [41]: > 100 µM (inactive) | GI50 [42]: > 100 µM (inactive) | GI50 [43]: > 100 µM (inactive) | GI50 [44]: 62.2 µM (inactive) | GI50 [45]: 7 µM (inactive) | GI50 [46]: > 100 µM (inactive) | GI50 [47]: > 100 µM (inactive) | GI50 [49]: > 100 µM (inactive) | GI50 [50]: > 100 µM (inactive) | GI50 [58]: 72.6 µM (inactive) | GI50 [51]: 0.361 µM (active) | GI50 [52]: 61.7 µM (inactive) | GI50 [53]: 72.1 µM (inactive) | GI50 [54]: 43.3 µM (inactive) | GI50 [55]: 39 µM (inactive) | GI50 [56]: 62.1 µM (inactive)
